In paper PMC3384522 (Bioconjugate Chemistry, 2011):

Columns and labels:
Format in all cases: binding
[1] = biological target: T1, Bacillus anthracis DHPS (BaDHPS) (Bacillus anthracis, UniProt Q81VW8)
[2] = biological target: BSA (Bos taurus, UniProt P02769); experiment: Incubation of probe in 1% BSA monitored by FP; conditions: FP absorbance significantly reduced
[3] = biological target: T1, Bacillus anthracis DHPS (BaDHPS); remark: listed apart in the source

T1 sequence (Q81VW8 1-280): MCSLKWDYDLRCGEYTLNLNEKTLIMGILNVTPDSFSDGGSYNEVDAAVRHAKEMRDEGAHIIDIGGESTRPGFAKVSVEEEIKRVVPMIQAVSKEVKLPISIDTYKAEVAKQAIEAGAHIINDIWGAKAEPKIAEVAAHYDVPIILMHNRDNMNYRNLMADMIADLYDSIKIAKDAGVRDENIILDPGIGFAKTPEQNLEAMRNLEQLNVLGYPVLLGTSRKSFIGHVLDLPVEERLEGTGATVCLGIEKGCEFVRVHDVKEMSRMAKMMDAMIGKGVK
Chain of BSA (P02769 25-607): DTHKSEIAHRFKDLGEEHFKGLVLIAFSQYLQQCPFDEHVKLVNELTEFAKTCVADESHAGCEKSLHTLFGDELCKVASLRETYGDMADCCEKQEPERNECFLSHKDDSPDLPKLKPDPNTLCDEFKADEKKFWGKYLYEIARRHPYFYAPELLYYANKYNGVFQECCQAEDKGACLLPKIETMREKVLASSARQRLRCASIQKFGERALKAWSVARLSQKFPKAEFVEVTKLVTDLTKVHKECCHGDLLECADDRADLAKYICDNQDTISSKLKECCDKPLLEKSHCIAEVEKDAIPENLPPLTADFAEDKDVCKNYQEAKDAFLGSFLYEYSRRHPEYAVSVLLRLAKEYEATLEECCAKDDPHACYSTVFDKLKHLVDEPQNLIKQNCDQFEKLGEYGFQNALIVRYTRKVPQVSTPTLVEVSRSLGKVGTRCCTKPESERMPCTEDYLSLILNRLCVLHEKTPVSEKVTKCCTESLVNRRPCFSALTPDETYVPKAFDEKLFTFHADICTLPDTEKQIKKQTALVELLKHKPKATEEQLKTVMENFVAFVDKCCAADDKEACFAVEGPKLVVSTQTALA

Structure (SMILES) | Binding site N (ITC) [1] | ΔH (ITC) [1] [kJ/mol] | Non-specific protein binding (FP in 1% BSA) [2] | Competitive displacement of FP probe 4 from BaDHPS [3]
CC(C(=O)NCCOCCOCCNC(=O)c1ccc2c(c1)C(=O)OC21c2ccc(O)cc2Oc2cc(O)ccc21)c1nn(C)c2nc(N)[nH]c(=O)c2c1=O (centres unmarked) [compound 4, N-(2-(2-(2-(2-(7-Amino-1-methyl-4,5-dioxo-1,4,5,6-tetrahydropyridazino[3,4-d]pyrimidin-3-yl)propanamido)ethoxy)ethoxy)ethyl)-3',6'-dihydroxy-3-oxo-3H-spiro[isobenzofuran-1,9'-xanthene]-5-carboxamide] | 1.09 ± 0.0464 | -11.7 ± 0.665 |  | 
Nc1nc(NCCOCCOCCNC(=O)c2ccc3c(c2)C(=O)OC32c3ccc(O)cc3Oc3cc(O)ccc32)c(N=O)c(=O)[nH]1 [compound 3] | 1.59 ± 0.0108 | -24.7 ± 0.247 | non-specific protein binder | 
Cc1cc(NS(=O)(=O)c2ccc(N)cc2)no1 [SMX, sulfamethoxazole] |  |  |  | not able to compete off the FP probe 4
Nc1ccc(S(N)(=O)=O)cc1 [SIA, sulfanilamide] |  |  |  | not able to compete off the FP probe 4
Nc1nc2ncc(CNc3ccc(C(=O)O)cc3)nc2c(=O)[nH]1 [pteroic acid] |  |  |  | able to compete off the FP probe 4
